Laboratory results reported in ChEMBL document CHEMBL1201862, “PubChem BioAssay data set” (2004).
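Where inhibition never reached the appropriate level, the endpoint shown equals the highest concentration tested. Otherwise, values were interpolated linearly from a five-concentration, 48-hour dose response in 96-well plates. At the GI50, growth is halved.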 Activity calls are given as the source filed them. Cut-off read from the data, not from the text of the source: active = GI50 up to about 1.1 µM and inactive = higher.

Key:
Test in all cases: growth of human tumour cells (NCI), 48 h
[1] = test system: UACC-62
[2] = test system: MCF7
[3] = test system: KM12
[4] = test system: SN12C
[5] = test system: HCT-116
[6] = test system: MOLT-4
[7] = test system: RXF 393
[8] = test system: SW-620
[9] = test system: HOP-92
[10] = test system: COLO 205
[11] = test system: MDA-MB-435
[12] = test system: EKVX
[13] = test system: CAKI-1
[14] = test system: MDA-MB-231
[15] = test system: ACHN
[16] = test system: SR
[17] = test system: OVCAR-3
[18] = test system: OVCAR-8
[19] = test system: MDA-N
[20] = test system: NCI-H226
[21] = test system: SF-268
[22] = test system: UACC-257
[23] = test system: SK-MEL-5
[24] = test system: HOP-62
[25] = test system: SK-OV-3
[26] = test system: M14
[27] = test system: SNB-19
[28] = test system: K562
[29] = test system: BT-549
[30] = test system: HCT-15
[31] = test system: SNB-75
[32] = test system: SK-MEL-28
[33] = test system: U-251
[34] = test system: Hs-578T
[35] = test system: A498
[36] = test system: HT-29
[37] = test system: OVCAR-5
[38] = test system: 786-0
[39] = test system: NCI-H522
[40] = test system: NCI-H460
[41] = test system: NCI-H23
[42] = test system: TK-10
[43] = test system: SK-MEL-2
[44] = test system: NCI/ADR-RES
[45] = test system: HCC 2998
[46] = test system: LOX IMVI
[47] = test system: DU-145
[48] = test system: RPMI-8226
[49] = test system: HL-60
[50] = test system: PC-3
[51] = test system: OVCAR-4
[52] = test system: SF-295
[53] = test system: SF-539
[54] = test system: IGROV-1
[55] = test system: A549
[56] = test system: Malme-3M
[57] = test system: CCRF-CEM
[58] = test system: T47D
[59] = test system: UO-31

With `COC(=O)CCC(=O)NC1=C(Nc2ccccc2)C(=O)c2ccccc2C1=O` the GI50 [1] was 3.67 µM (inactive), the GI50 [2] was 3.89 µM (inactive) and the GI50 [3] was 15.7 µM (inactive). For the same compound, the GI50 [4] was 13.6 µM (inactive), the GI50 [5] was 9.71 µM (inactive) and the GI50 [6] was 12.1 µM (inactive). The GI50 [7] was 8.81 µM (inactive), the GI50 [8] was 11.4 µM (inactive) and the GI50 [9] was 15 µM (inactive). The GI50 [10] was 16.7 µM (inactive), the GI50 [11] was 1.97 µM (inactive) and the GI50 [12] was 16.6 µM (inactive). For the same compound, the GI50 [13] was 14.4 µM (inactive), the GI50 [14] was 9.66 µM (inactive) and the GI50 [15] was 14.9 µM (inactive). The GI50 [16] was 11.4 µM (inactive), the GI50 [17] was 2.94 µM (inactive) and the GI50 [18] was 11.4 µM (inactive). The GI50 [19] was 2.04 µM (inactive), the GI50 [20] was 14.6 µM (inactive) and the GI50 [21] was 13.2 µM (inactive). The GI50 [22] was 2.84 µM (inactive), the GI50 [23] was 1.83 µM (inactive) and the GI50 [24] was 17.8 µM (inactive). The GI50 [25] was 12.9 µM (inactive), the GI50 [26] was 3.58 µM (inactive) and the GI50 [27] was 17.2 µM (inactive). For the same compound, the GI50 [28] was 14.8 µM (inactive), the GI50 [29] was 10.6 µM (inactive) and the GI50 [30] was 11.2 µM. The GI50 [31] was 18.3 µM (inactive), the GI50 [32] was 8.51 µM (inactive) and the GI50 [33] was 11.7 µM (inactive). The GI50 [34] was 7.18 µM (inactive), the GI50 [35] was 15 µM (inactive) and the GI50 [36] was 16.9 µM (inactive). The GI50 [37] was 9.27 µM (inactive), the GI50 [38] was 12.3 µM (inactive) and the GI50 [39] was 14.8 µM (inactive). The GI50 [40] was 15.3 µM (inactive), the GI50 [41] was 4.28 µM (inactive) and the GI50 [42] was 22.5 µM (inactive). For the same compound, the GI50 [43] was 5.57 µM (inactive), the GI50 [44] was 14.8 µM (inactive) and the GI50 [45] was 22.9 µM (inactive). For the same compound, the GI50 [46] was 4.34 µM (inactive), the GI50 [47] was 10.8 µM (inactive) and the GI50 [48] was 13.2 µM (inactive). The GI50 [49] was 3.36 µM (inactive), the GI50 [50] was 12.4 µM (inactive) and the GI50 [51] was 10.5 µM (inactive). For the same compound, the GI50 [52] was 15.4 µM (inactive), the GI50 [53] was 13 µM (inactive) and the GI50 [54] was 11.5 µM (inactive). The GI50 [55] was 18.8 µM (inactive), the GI50 [56] was 2.55 µM (inactive) and the GI50 [57] was 9.95 µM (inactive). The GI50 [58] was 13.3 µM (inactive) and the GI50 [59] was 17.9 µM (inactive).

In the case of `CC1(C)OC[C@@H](C[C@H](O)COCc2ccccc2)O1`, the GI50 [1] is reported as > 100 µM (inactive), the GI50 [2] is reported as > 100 µM (inactive) and the GI50 [3] is reported as > 100 µM (inactive). The GI50 [4] was > 100 µM (inactive), the GI50 [5] was > 100 µM (inactive) and the GI50 [6] was > 100 µM (inactive). For the same compound, the GI50 [7] was > 100 µM (inactive), the GI50 [8] was > 100 µM (inactive) and the GI50 [9] was > 100 µM (inactive). The GI50 [10] was > 100 µM (inactive), the GI50 [11] was > 100 µM (inactive) and the GI50 [12] was > 100 µM (inactive). For the same compound, the GI50 [13] was > 100 µM (inactive), the GI50 [14] was > 100 µM (inactive) and the GI50 [15] was > 100 µM (inactive). For the same compound, the GI50 [16] was > 100 µM (inactive), the GI50 [17] was > 100 µM (inactive) and the GI50 [18] was > 100 µM (inactive). The GI50 [19] was > 100 µM (inactive), the GI50 [20] was > 100 µM (inactive) and the GI50 [21] was > 100 µM (inactive). The GI50 [22] was > 100 µM (inactive), the GI50 [23] was > 100 µM (inactive) and the GI50 [24] was > 100 µM (inactive). For the same compound, the GI50 [25] was > 100 µM (inactive), the GI50 [26] was > 100 µM (inactive) and the GI50 [27] was > 100 µM (inactive). For the same compound, the GI50 [28] was > 100 µM (inactive), the GI50 [29] was > 100 µM (inactive) and the GI50 [30] was > 100 µM. The GI50 [31] was > 100 µM (inactive), the GI50 [32] was > 100 µM (inactive) and the GI50 [33] was > 100 µM (inactive). For the same compound, the GI50 [34] was > 100 µM (inactive), the GI50 [35] was > 100 µM (inactive) and the GI50 [36] was > 100 µM (inactive). For the same compound, the GI50 [37] was > 100 µM (inactive), the GI50 [38] was > 100 µM (inactive) and the GI50 [39] was > 100 µM (inactive). For the same compound, the GI50 [40] was > 100 µM (inactive), the GI50 [41] was > 100 µM (inactive) and the GI50 [42] was > 100 µM (inactive). For the same compound, the GI50 [43] was > 100 µM (inactive), the GI50 [44] was > 100 µM (inactive) and the GI50 [45] was > 100 µM (inactive). The GI50 [46] was > 100 µM (inactive), the GI50 [47] was > 100 µM (inactive) and the GI50 [48] was > 100 µM (inactive). The GI50 [49] was > 100 µM (inactive), the GI50 [50] was > 100 µM (inactive) and the GI50 [51] was > 100 µM (inactive). For the same compound, the GI50 [52] was > 100 µM (inactive), the GI50 [53] was > 100 µM (inactive) and the GI50 [54] was > 100 µM (inactive). For the same compound, the GI50 [55] was > 100 µM (inactive), the GI50 [56] was > 100 µM (inactive) and the GI50 [57] was > 100 µM (inactive). For the same compound, the GI50 [58] was > 100 µM (inactive) and the GI50 [59] was > 100 µM (inactive).
